Laboratory results as given in publication PMC12508156, “Non-canonical dihydrolipoyl transacetylase promotes chemotherapy resistance via mitochondrial tetrahydrofolate signaling” (Nature Communications, 2025).
Residues, ends and D or L forms follow the SMILES beside them.

Tests used:
[1] = Organ toxicity in mice (serum ALT, cystatin C, spleen index); assay type: in vivo
Description: K44 containing α-helix in MTHFD2, is marked in purple. The amino acid sequence of DMp39 is shown at the top. b HPLC-based in vitro serum stability assay of DMp39. DMp39 (0.2 mg) was incubated for indicated times with pre-warmed 50% serum and applied to HPLC. […] Liver, kidney, and spleen toxicity were assessed by serum alanine aminotransferase, cystatin C, and spleen index (spleen weight (mg)/body weight (g) x 10), respectively. g Efficacy test of Cy7-DMp39 in vivo. […] MTHFD2 and Ac-K44 MTHFD2 levels in tumors were assessed by co-immunoprecipitation of MTHFD2. […] Representative images of the tumors at the endpoint are presented in (h) and (k). Ac-K44 MTHFD2, MT-CO2, and DLAT levels in both xenograft mouse tumors were assessed by IHC staining (j, m). […]
Mice were subcutaneously injected into the flank with 1 × 10^6 KB-3-1^cisR cells with or without DLAT knockdown. […] The tumor volume of KB-3-1^cisR or PDX tumors was monitored by blinded measurements of two perpendicular diameters and calculated using the formula 4π/3 x (width/2)^2 x (length/2). […] Tumors were collected at the experimental endpoint, and tumor proliferation was assessed using Ki-67 IHC staining. The localization, penetration, and efficacy of DMp39 were monitored by assessing the acetyl-K44 levels in tumors and fluorescence imaging analysis using an IVIS imaging system. […]

[2] = HPLC-based in vitro serum stability assay; assay type: in vitro ADME; conditions: 0.2 mg DMp39 incubated for indicated times with pre-warmed 50% serum, remaining peptide by heights of elution peaks, optimal dose of 20 μM
Description: Fig. 8 Decoy peptide DMp39 targets DLAT-mediated MTHFD2 acetylation and increases tumor chemosensitivity in vitro and in vivo. a The structure of MTHFD2. K44 containing α-helix in MTHFD2, is marked in purple. The amino acid sequence of DMp39 is shown at the top. b HPLC-based in vitro serum stability assay of DMp39. DMp39 (0.2 mg) was incubated for indicated times with pre-warmed 50% serum and applied to HPLC. […] Liver, kidney, and spleen toxicity were assessed by serum alanine aminotransferase, cystatin C, and spleen index (spleen weight (mg)/body weight (g) x 10), respectively. g Efficacy test of Cy7-DMp39 in vivo. […] MTHFD2 and Ac-K44 MTHFD2 levels in tumors were assessed by co-immunoprecipitation of MTHFD2. […] Representative images of the tumors at the endpoint are presented in (h) and (k). Ac-K44 MTHFD2, MT-CO2, and DLAT levels in both xenograft mouse tumors were assessed by IHC staining (j, m). Scale bars in (h) and (k) represent 10 mm and 25 μm in (j) and (m). Results are presented as mean ± SEM for (h, k) and mean ± SD for the rest. n = 3 per group for (e, f), n = 6 for (g) left, n = 5 for (g) right, n = 6 for (h–j), and n = 5 for (k–m). P values were obtained by one-way ANOVA. Source data are provided as a Source Data file.

## CC[C@H](C)[C@H](NC(=O)[C@H](CCC(N)=O)NC(=O)[C@H](CCC(N)=O)NC(=O)[C@H](C)NC(=O)[C@H](CC(C)C)NC(=O)[C@H](CCCCN)NC(=O)[C@H](CCCNC(=N)N)NC(=O)CNC(=O)[C@H](CO)NC(=O)[C@@H](NC(=O)[C@@H](N)C(C)C)[C@@H](C)CC)C(=O)N[C@@H](CCCCN)C(=O)N[C@@H](CCC(N)=O)C(=O)N[C@@H](CCC(=O)O)C(=O)N[C@H](C(=O)N[C@@H](CCCNC(=N)N)C(=O)N[C@@H](CCC(N)=O)C(=O)N[C@@H](CCC(=O)O)C(=O)N[C@H](C(=O)N[C@@H](CCC(=O)O)C(=O)N[C@@H](CCC(=O)O)C(=O)N[C@@H](Cc1c[nH]c2ccccc12)C(=O)N[C@H](C(=O)N[C@@H](C)C(=O)N[C@@H](CO)C(=O)NCC(=O)N[C@@H](CC(N)=O)C(=O)N[C@@H](CCCCN)C(=O)N[C@@H](Cc1ccc(O)cc1)C(=O)NCC(=O)N[C@@H](CCCNC(=N)N)C(=O)N[C@@H](CCCCN)C(=O)N[C@@H](CCCCN)C(=O)N[C@@H](CCCNC(=N)N)C(=O)N[C@@H](CCCNC(=N)N)C(=O)N[C@@H](CCC(N)=O)C(=O)N[C@@H](CCCNC(=N)N)C(=O)N[C@@H](CCCNC(=N)N)C(=O)N[C@@H](CCCNC(=N)N)C(=O)O)C(C)C)C(C)C)C(C)C [DMp39] (H-VISGRKLAQQIKQEVRQEVEEWVASGNKYGRKKRRQRRR-OH)
[1]; mice, sublethal cisplatin (5 mg/kg, twice/week for 22 days) and/or DMp39
  toxicity markers: remained at baseline levels
[1]; short-term dosing in mice
  acute toxicity: no acute toxicity
[2]
  time-dependent serum stability: stable
